The source of these data is patent US4138485A, “Phenylalanine derivatives” (Kyowa Hakko Kogyo Kabushiki Kaisha, priority 1976, dated 1979).

One data set can be described thus: Acute toxicity in mice. The conditions noted are these: mouse, in vivo. How it is done: (§1) (1) Acute toxicity and tonic convulsion in hind paw:
(§2) The acute toxicity and tonic convulsion occured by stimulus by hand touch were determined in the following manner to give the results shown in Table 2.
(a) Acute toxicity in mice:
38 Groups, each consisting of 5 mice (male dd-strain, weight -- 18 to 24 g), were used for the test and control groups. The compounds shown in Table 2 were administered orally or intraperitoneally to the mice. After one week, the survival ratio was measured.

The next data set is described as follows: Acute toxicity in rats. The conditions noted are these: rat, in vivo. As for the experimental part:
as §1, §2
(b) Acute toxicity in rats:
28 Groups, each consisting of 5 rats (male Wistar strain, weight -- 200 g), were used for the test and control groups. The compounds shown in Table 2 were orally administered to the rats. After one week, the survival ratio was measured.

The subject of data set [1] is hyperlipemia induced by Triton. Briefly: Cholesterol-lowering activity on hyperlipemia induced by Triton in mice. It is filed as in vivo, mice (male dd-strain). The conditions noted are these: Mus musculus, read-out: Ratio of the reduction of cholesterol. As for the experimental part:
(2) Cholesterol-Lowering activity on hyperlipemia induced by Triton in mice:
38 Groups, each consisting of 9 mice (male dd-strain, weight -- 19 to 21 g), were used for the test and control groups. […] Immediately after the administration and also after 20 hours from the administration of Triton, the mice were orally administered with 100 mg/kg of the compound shown in Table 3. 43 hours after the administration of Triton, the blood samples were collected by decapitation and then the corpuscle was removed by centrifugation. Cholesterol in the serum was determined by Zurkowski's method modified by Shibata (color of the test solution was developed by using sulfoalicyclic acid, acetic acid and sulfuric acid and the optical density of the solution was determined at 620 mμ.

The subject of another data set is Cholesterol in the serum. The data set is described as follows: Cholesterol-lowering activity on normal rats of Wistar strain (serum cholesterol, liver weight). It is filed as in vivo, rats (male Wistar strain). To be noted: 0.3% in diet; for B - Ratio of decrease of liver weight: continuous administration for 4 days. As for the experimental part:
(3) Cholesteral-lowering activity on normal rats of Wistar strain:
(i) 22 Groups, each consisting of 5 rats (male Wistar strain, weight -- 150 to 180 g) were used for the test and control groups. After this, the blood samples were collected by decapitation and then the corpuscle was removed by centrifugation. Cholesterol in the serum was determined by Zurkowski's method modified by Shibata and also the liver was excised and weighed. The results are shown in Table 4 wherein the ratio of 100% denotes the amount of chloresterol and the weight of the liver of normal rats fed with powdery diet without the addition of the compound.

Data set [2] deals with Triglyceride, phospholipid and free fatty acid in the serum. The data set is described as follows: Determination of triglyceride, phospholipid and free fatty acid in the serum of normal rats. It is filed as in vivo, rats (Wistar strain). To be noted: continuous administration for 4 days. How it is done:
(ii) Determination of triglyceride, phospholipid and free fatty acid in the serum of normal rats of Wistar strain: Clofibrate and Compounds 1 and 2 were tested in a similar manner to that described in (i). Triglyceride, phospholipid and free fatty acid in the serum were determined in the following manner to give the results shown in Table 5. (a) Determination of triglyceride: Triglyceride was determined by acetylacetone method [Kazuo Matsumiya et al "Rinsho Byori", Vol. 18, page 383 (1970), Japan] in the following manner. Isopropyl alcohol was added to the test solution of the serum to extract triglyceride which was then saponified with potassium hydroxide to give glycerol. The glycerol was oxidized by using sodium salt of methaperiodic acid to convert it into formaldehyde. Color of the test solution was developed by acetylacetone and the optical density at 420 mμ was determined. (b) Determination of phospholipid: "Phospholipid Test Wako", a reagent available from Wako Junyaku K.K., Japan, was used for the determination of phospholipid in the following manner according to a similar manner to that described in "Rinsho Byori", Vol. 17, page 389 (1969), Japan, by Atsuo […] et al. Trichloroacetic acid was added to the serum to give precipitates of lipoprotein which were then added with sulfuric acid and potassium permanganate to form phosphoric acid. Color of the test solution was developed by ammonium molybdate and the optical density was determined at 660 mμ. (c) Determination of free fatty acid: Laurell's method [CLin. Chim. Acta. 16, 57 (1967)] was used for determination in the following manner. […] After shaking for 5 minutes, the solution was centrifuged. 5 Ml of the supernatant was put into another tube and was added with 2 ml of copper reagent. […] The optical density at 550 mμ was determined.

The subject of data set [3] is hyperlipemia induced by Triton. Briefly: Effect on hyperlipemia induced by Triton in rats: activity in the increasing phase. It is filed as in vivo, rats (male Wistar strain). How it is done: (§3) (4) Effect on hyperlipemia induced by Triton in rats:
(i) Activity in the increasing phase:
(§4) 3 Groups, each consisting of 9 rats (male Wistar strain, weight -- 200 to 240 g) fasted for 24 hours were used for this test. Each rat was administered intravenously with 200 mg/kg of Triton (WR-1339), followed by oral administration of 200 mg/kg of the compounds shown in Table 6. After 20 hours from the administration, the blood samples were collected by decapitation. Cholesterol and triglyceride in the serum were determined in a similar manner to that used in (2, ii) to give the results shown in Table 6.

Data set [4] deals with hyperlipemia induced by Triton. Briefly: Effect on hyperlipemia induced by Triton in rats: activity in the decreasing phase. It is filed as in vivo, rats (male Wistar strain). To be noted: serum, decreasing phase, 200 mg/kg oral 25 hours after Triton, sampled at 30 hours. As for the experimental part: as §3, §4
(II) Activity in the decreasing phase:
Hyperlipemia occurred by administering Triton (WR-1339) in a similar manner to that in (i). After 25 hours, 200 mg/kg of the compounds were orally administered to the rats. After 30 hours from the injection of Triton, the blood samples were collected by decapitation.

In data set [5] the test system is glycerol induced hyperlipemia. The data set is described as follows: Lipid lowering effects on glycerol induced hyperlipemia in rats. It is filed as in vivo, rats (male Wistar strain). To be noted: 0.25% in diet. How it is done:
(5) Lipid lowering effects on glycerol induced hyperlipemia in rats: The test was carried out in a similar method to that by […] et al [Life Science, 3, 1021 (1964)] . A group consisting of 10 rats (male Wistar strain, weight - 190 to 210 g) was used for each of the test and control groups. Hyperlipemia occurred by feeding the rats ad libitum with water containing 15% (by volume) of glycerol. […] After this, the blood samples were collected by decapitation and the serum was separated by centrifugation.

For data set [6], the system named is cholesterol and triglyceride in the serum. The data set is described as follows: Lipid lowering activity in cynomolgus monkeys. The conditions noted are these: 100 mg/kg/day oral, 10 days. It is filed as in vivo, cynomolgus monkeys (male, born in Malaysia). How it is done: (6) Lipid lowering activity in cynomolgus monkeys:
6 cynomolgus monkeys (male, born in Malaysia, weight -- 2.5 to 3.9 kg) were used for this test. All monkies were breeded in individual cages at a temperature from 23° to 25° C. and fed with a solid diet for monkey (available from Oriental Yeast K.K., Japan) and sweet potatoes every morning and with apples and bananas from time to time. The monkeys were divided into 3 groups, each consisting of 2 monkeys, to orally and compulsively administer the test compound in an amount of 100 mg/kg/day once in every morning for 10 days. At 11 days after the first administration, before feeding the diet in early morning blood samples were collected from the saphenae of the monkeys to determine cholesterol and triglyceride in a similar manner to that described above. The ratio of lowering cholesterol (RCL) or triglyceride (RLT) was calculated by the following formula. [formula] wherein A is the average amount of the cholesterol or triglyceride in the serum before administration, and B is the corresponding amont after administration for 10 days.
After an interval of 5 weeks, another compound was administered to determine cholesterol or triglyceride in a similar manner to that described above. After a further interval of 5 weeks, a similar procedure was repeated by using another compound to determine cholesterol or triglyceride.

Setting [7] is: continuous administration for 14 days.
[8] abbreviates: serum, increasing phase, 200 mg/kg oral, 20 hours.
The mark [9] stands for this setting: oral administration, after one week, read-out: Acute Toxicity (LD50), A.
Setting [10] is: oral administration, after one week, read-out: Acute Toxicity (LD50), C.

Each structure is given as a SMILES string. Like-named read-outs stand apart in the source and are kept apart here.

For the compound `CCOC(=O)C(C)(C)Oc1ccc(Cl)cc1` [Clofibrate, reference compound], the LD50 (as a rule, the dose expected to kill half of the subjects tested) at 168 h in “Acute toxicity in mice” (ip) was determined as 1620 mg/kg. Further, the LD50 at 168 h in “Acute toxicity in mice” (po) was 2100 mg/kg. In “Acute toxicity in rats” (po), this compound registered an LD50 at 168 h of more than 200 mg/kg. For the same compound, the inhibition in vivo at 100 mg/kg in data set [1] (100 mg/kg oral, twice (0 and 20 hours after Triton 600 mg/kg i.v.), serum at 43 hours) stood at 40%. In the data set on Cholesterol in the serum, the “B - Ratio of decrease of liver weight” value worked out at 40.1%. Besides, in the data set with Cholesterol in the serum (setting [7]), the “C - Ratio of decrease of cholesterol” value was 32.3% and the “D - Ratio of increase of liver weight” value amounted to 60.1%. Besides, in data set [2], the “A - Ratio of decrease of triglyceride” value came to 50.1%, the “B - Ratio of decrease of phospholipid” value was found to be 25.0% and the “C - Ratio of decrease of free fatty acid” value came out at 26.7%. The “activity in the developing phase (in words)” value in [3] (Clofibrate, Compounds 1 and 2 compared with each other) is recorded as “substantially equal”. In data set [3] (setting [8]), the Cholesterol turned out to be 203 mg/dL; the “Cholesterol, Ratio of decrease” value came to 20.8%; the Triglyceride was determined as 856 mg/dL; the “Triglyceride, Ratio of decrease” value is listed as 36.0%. Besides, in data set [4], the Cholesterol turned out to be 138 mg/dL; the “Cholesterol, Ratio of decrease” value came out at 7.5%; the Triglyceride is 401 mg/dL; the “Triglyceride, Ratio of decrease” value was -15.6%. Further, the “activity on lowering triglyceride and cholesterol (in words)” value in data set [5] was “have an activity on lowering triglyceride and cholesterol”. Also, in [5] (serum, 15% glycerol in water), the Cholesterol came to 39.1 mg/dL; the “Cholesterol, Ratio of decrease” value was 30.6%; the Triglyceride was determined as 129 mg/dL; the “Triglyceride, Ratio of decrease” value was 74.0%. Further, in data set [6], the “cholesterol-lowering activity (in words)” value is given as “have a cholesterol-lowering activity”. In data set [6] (average of 3 times cross-over), the “Decrease Ratio of Cholesterol” value is listed as 6.7% and the “Decrease Ratio of Triglyceride” value stood at 9.0%.

As for `Cc1ccc(C)c(CSC(=O)N[C@@H](Cc2ccccc2)C(=O)O)c1` [Compound 26, N-(2,5-dimethylbenzylthiocarbonyl)-L-phenylalanine], the 50% lethal dose (LD50) at 168 h in the data set “Acute toxicity in mice” (setting [9]) is more than 1000 mg/kg; in “Acute toxicity in rats” (setting [10]), more than 100 mg/kg. In addition, the inhibition in vivo at 100 mg/kg in data set [1] (po, 43 h) stood at 43%. Further, the “B - Ratio of decrease of liver weight” value in the data set on Cholesterol in the serum came to 0.8%.

Regarding `COC(=O)[C@H](Cc1ccccc1)NC(=O)SCc1cc(C)ccc1C` [Compound 27, N-(2,5-dimethylbenzylthiocarbonyl)-L-phenylalanine methylester], the LD50 at 168 h was more than 1000 mg/kg in “Acute toxicity in mice” (setting [9]) and more than 100 mg/kg in “Acute toxicity in rats” (setting [10]). For the same compound, the inhibition in vivo at 100 mg/kg in data set [1] (po, 43 h) came out at 30%. Moreover, the “B - Ratio of decrease of liver weight” value in the data set with Cholesterol in the serum is reported as -0.2%.

For `CC(C)(C)c1ccc(CSC(=O)N[C@@H](Cc2ccccc2)C(=O)O)cc1` [Compound 28, N-(4-tert-butylbenzylthiocarbonyl)-L-phenylalanine], the figures for the LD50 at 168 h in the data set “Acute toxicity in mice” (setting [9]) and in “Acute toxicity in rats” (setting [10]) were more than 1000 mg/kg and more than 100 mg/kg, respectively. The inhibition in vivo at 100 mg/kg in data set [1] (po, 43 h) was determined as 50%. In addition, the “B - Ratio of decrease of liver weight” value with Cholesterol in the serum was 10.6%.

Turning to `COC(=O)[C@H](Cc1ccccc1)NC(=O)SCc1c(C)c(C)c(C)c(C)c1C` [Compound 30, N-(2,3,4,5,6-pentamethylbenzylthiocarbonyl)-L-phenylalanine methylester], the median lethal dose (LD50) at 168 h was more than 1000 mg/kg in the data set “Acute toxicity in mice” (setting [9]) and more than 100 mg/kg in “Acute toxicity in rats” (setting [10]). Further, the inhibition in vivo at 100 mg/kg in data set [1] (po, 43 h) was found to be 68%. Besides, in the data set with Cholesterol in the serum, the “B - Ratio of decrease of liver weight” value is 11.0%.

Take `O=C(N[C@@H](Cc1ccccc1)C(=O)O)SCc1cccc2ccccc12` [Compound 31, N-(α-naphthylmethylthiocarbonyl)-L-phenylalanine]: the figures for the LD50 at 168 h in “Acute toxicity in mice” (setting [9]) and in “Acute toxicity in rats” (setting [10]) were more than 1000 mg/kg and more than 100 mg/kg, respectively. In addition, the inhibition in vivo at 100 mg/kg in [1] (po, 43 h) was 74%. In the data set with Cholesterol in the serum, the “B - Ratio of decrease of liver weight” value is listed as 24.4%.

As to `COC(=O)[C@H](Cc1ccccc1)NC(=O)SCc1cccc2ccccc12` [Compound 32], the figures for the LD50 at 168 h in the data set “Acute toxicity in mice” (setting [9]) and in “Acute toxicity in rats” (setting [10]) were more than 1000 mg/kg and more than 100 mg/kg, respectively. Further, the inhibition in vivo at 100 mg/kg in [1] (po, 43 h) turned out to be 56%. Also, the “B - Ratio of decrease of liver weight” value in the data set on Cholesterol in the serum is 12.4%.
